Target: T1, KRas-G12D (Homo sapiens, UniProt P01116, G12D)
T1 construct: insert the HiBiT tag onto the N-terminus of one or more of the endogenous KRas alleles; host or cells: AsPC-1 HiBiT-KRasG12D knock-in clone (one tagged allele, two untagged KRasG12D alleles)
Assay: HiBiT Degradation Assay (G12D), AsPC-1 HiBiT-KRasG12D cells, 24 hr
Type: cell-based
Conditions: for Dmax: ASPC1, AsPC-1 cells, maximum degradation observed; for DC50: AsPC-1 cells
Procedure, shortened: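 Degradation was read after 24 hr compound exposure (0.5% DMSO, 37° C) by Nano-Glo HiBiT lytic luminescence in AsPC-1 cells carrying a HiBiT tag on one of three KRasG12D alleles. Signal relative to DMSO gave DC50 and Dmax by 4-parameter fit; alamar blue fluorescence monitored cytotoxicity.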

T1 sequence (P01116 1-188 isoform P01116-2 G12D): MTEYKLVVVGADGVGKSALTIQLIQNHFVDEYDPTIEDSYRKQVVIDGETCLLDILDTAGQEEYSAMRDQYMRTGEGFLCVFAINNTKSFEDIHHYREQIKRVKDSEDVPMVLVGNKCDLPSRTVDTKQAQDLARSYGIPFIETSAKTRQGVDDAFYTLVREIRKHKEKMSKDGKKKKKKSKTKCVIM

Row | SMILES | Dmax [%] | DC50 [µM]
1 | C#Cc1c(F)ccc2cc(O)cc(-c3ncc4c(N5CC6CCC(C5)N6)nc(OCCN5CCC(CN6CCN(CC7CCN(c8ccc9c(c8F)n(C(C)C)c(=O)n9C8CCC(=O)NC8=O)CC7)CC6)CC5)nc4c3F)c12 (stereo not shown) [Compound 159, 3-{5-[4-({4-[(1-{2-[(4-{3,8-diazabicyclo[3.2.1]octan-3-yl}-7-(8-ethynyl-7-fluoro-3-hydroxynaphthalen-1-yl)-8-fluoropyrido[4,3-d]pyrimidin-2-yl)oxy]ethyl}piperidin-4-yl)methyl]piperazin-1-yl}methyl)piperidin-1-yl]-4-fluoro-2-oxo-3-(propan-2-yl)-2,3-dihydro-1H-1,3-benzodiazol-1-yl}piperidine-2,6-dione] | > 70 | < 5.1
2 | C#Cc1c(F)ccc2cc(O)cc(-c3ncc4c(N5CC6CCC(C5)N6)nc(OCCN5CCC(C)(CN6CCN(CC7CCN(c8ccc9c(c8)n(C)c(=O)n9C8CCC(=O)NC8=O)CC7)CC6)CC5)nc4c3F)c12 (stereo not shown) [Compound 160, 3-{5-[4-({4-[(1-{2-[(4-{3,8-diazabicyclo[3.2.1]octan-3-yl}-7-(8-ethynyl-7-fluoro-3-hydroxynaphthalen-1-yl)-8-fluoropyrido[4,3-d]pyrimidin-2-yl)oxy]ethyl}-4-methylpiperidin-4-yl)methyl]piperazin-1-yl}methyl)piperidin-1-yl]-3-methyl-2-oxo-2,3-dihydro-1H-1,3-benzodiazol-1-yl}piperidine-2,6-dione] | > 70 | < 5.1
3 | C#Cc1c(F)ccc2cc(O)cc(-c3ncc4c(N5CC6CCC(C5)N6)nc(OCCN5CCC(C)(CC6CCN(CC7CCN(c8ccc9c(c8)n(C)c(=O)n9C8CCC(=O)NC8=O)CC7)CC6)CC5)nc4c3F)c12 (stereo not shown) [Compound 161, 3-{5-[4-({4-[(1-{2-[(4-{3,8-diazabicyclo[3.2.1]octan-3-yl}-7-(8-ethynyl-7-fluoro-3-hydroxynaphthalen-1-yl)-8-fluoropyrido[4,3-d]pyrimidin-2-yl)oxy]ethyl}-4-methylpiperidin-4-yl)methyl]piperidin-1-yl}methyl)piperidin-1-yl]-3-methyl-2-oxo-2,3-dihydro-1H-1,3-benzodiazol-1-yl}piperidine-2,6-dione] | > 70 | < 5.1
4 | C#Cc1c(F)ccc2cc(O)cc(-c3ncc4c(N5CC6CCC(C5)N6)nc(OCCN5CCN(CC6CCN(CC7CCN(c8ccc9c(c8)n(C)c(=O)n9C8CCC(=O)NC8=O)CC7)CC6)CC5(C)C)nc4c3F)c12 (stereo not shown) [Compound 162, 3-{5-[4-({4-[(4-{2-[(4-{3,8-diazabicyclo[3.2.1]octan-3-yl}-7-(8-ethynyl-7-fluoro-3-hydroxynaphthalen-1-yl)-8-fluoropyrido[4,3-d]pyrimidin-2-yl)oxy]ethyl}-3,3-dimethylpiperazin-1-yl)methyl]piperidin-1-yl}methyl)piperidin-1-yl]-3-methyl-2-oxo-2,3-dihydro-1H-1,3-benzodiazol-1-yl}piperidine-2,6-dione] | > 70 | < 5.1
5 | C#Cc1c(F)ccc2cc(O)cc(-c3ncc4c(N5CC6CCC(C5)N6)nc(OCCN5CCC(CC6CCN(CC7CCN(c8ccc9c(c8F)CN([C@@H]8CCC(=O)NC8=O)C9=O)CC7)CC6)CC5)nc4c3F)c12 [Compound 163, (3R)-3-{5-[4-({4-[(1-{2-[(4-{3,8-diazabicyclo[3.2.1]octan-3-yl}-7-(8-ethynyl-7-fluoro-3-hydroxynaphthalen-1-yl)-8-fluoropyrido[4,3-d]pyrimidin-2-yl)oxy]ethyl}piperidin-4-yl)methyl]piperidin-1-yl}methyl)piperidin-1-yl]-4-fluoro-1-oxo-2,3-dihydro-1H-isoindol-2-yl}piperidine-2,6-dione] | > 70 | < 5.1
6 | C#Cc1c(F)ccc2cc(O)cc(-c3ncc4c(N5CC6CCC(C5)N6)nc(OC[C@@H]5C[C@@H](OC6CCN(CC7CN(c8ccc9c(c8)CN(C8CCC(=O)NC8=O)C9=O)C7)CC6)CN5C)nc4c3F)c12 (stereo partly drawn) [Compound 164, 3-(5-{3-[(4-{[(3R,5S)-5-{[(4-{3,8-diazabicyclo[3.2.1]octan-3-yl}-7-(8-ethynyl-7-fluoro-3-hydroxynaphthalen-1-yl)-8-fluoropyrido[4,3-d]pyrimidin-2-yl)oxy]methyl}-1-methylpyrrolidin-3-yl]oxy}piperidin-1-yl)methyl]azetidin-1-yl}-1-oxo-2,3-dihydro-1H-isoindol-2-yl)piperidine-2,6-dione] | > 70 | < 5.1
7 | C#Cc1c(F)ccc2cc(O)cc(-c3ncc4c(N5CC6CCC(C5)N6)nc(OC[C@@H]5C[C@@H](OC6CCN(CC7CCN(c8ccc9c(c8)CN(C8CCC(=O)NC8=O)C9=O)CC7)CC6)CN5CC)nc4c3F)c12 (stereo partly drawn) [Compound 165, 3-(5-{4-[(4-{[(3R,5S)-5-{[(4-{3,8-diazabicyclo[3.2.1]octan-3-yl}-7-(8-ethynyl-7-fluoro-3-hydroxynaphthalen-1-yl)-8-fluoropyrido[4,3-d]pyrimidin-2-yl)oxy]methyl}-1-ethylpyrrolidin-3-yl]oxy}piperidin-1-yl)methyl]piperidin-1-yl}-1-oxo-2,3-dihydro-1H-isoindol-2-yl)piperidine-2,6-dione] | > 70 | < 5.1
8 | C#Cc1c(F)ccc2cc(O)cc(-c3ncc4c(N5CC6CCC(C5)N6)nc(OCCN5CCC(CN6CCC(CC7CCN(c8ccc9c(c8F)n(C)c(=O)n9C8CCC(=O)NC8=O)CC7)CC6)CC5)nc4c3F)c12 (stereo not shown) [Compound 166, 3-{5-[4-({1-[(1-{2-[(4-{3,8-diazabicyclo[3.2.1]octan-3-yl}-7-(8-ethynyl-7-fluoro-3-hydroxynaphthalen-1-yl)-8-fluoropyrido[4,3-d]pyrimidin-2-yl)oxy]ethyl}piperidin-4-yl)methyl]piperidin-4-yl}methyl)piperidin-1-yl]-4-fluoro-3-methyl-2-oxo-2,3-dihydro-1H-1,3-benzodiazol-1-yl}piperidine-2,6-dione] | > 70 | < 5.1
9 | C#Cc1c(F)ccc2cc(O)cc(-c3ncc4c(N5CC6CCC(C5)N6)nc(OCCN5CCC(CN6CCC(CC7CCN(c8ccc9c(c8F)n(C(C)C)c(=O)n9C8CCC(=O)NC8=O)CC7)CC6)CC5)nc4c3F)c12 (stereo not shown) [Compound 167, 3-{5-[4-({1-[(1-{2-[(4-{3,8-diazabicyclo[3.2.1]octan-3-yl}-7-(8-ethynyl-7-fluoro-3-hydroxynaphthalen-1-yl)-8-fluoropyrido[4,3-d]pyrimidin-2-yl)oxy]ethyl}piperidin-4-yl)methyl]piperidin-4-yl}methyl)piperidin-1-yl]-4-fluoro-2-oxo-3-(propan-2-yl)-2,3-dihydro-1H-1,3-benzodiazol-1-yl}piperidine-2,6-dione] |  | < 5.1
10 | C#Cc1c(F)ccc2cc(O)cc(-c3ncc4c(N5CC6CCC(C5)N6)nc(OCCN5CCC(CN6CCN(CC7CCN(c8ccc9c(c8F)CN(C8CCC(=O)NC8=O)C9=O)CC7)CC6)CC5(C)C)nc4c3F)c12 (stereo not shown) [Compound 168, 3-{5-[4-({4-[(1-{2-[(4-{3,8-diazabicyclo[3.2.1]octan-3-yl}-7-(8-ethynyl-7-fluoro-3-hydroxynaphthalen-1-yl)-8-fluoropyrido[4,3-d]pyrimidin-2-yl)oxy]ethyl}-2,2-dimethylpiperidin-4-yl)methyl]piperazin-1-yl}methyl)piperidin-1-yl]-4-fluoro-1-oxo-2,3-dihydro-1H-isoindol-2-yl}piperidine-2,6-dione] | > 70 | < 5.1
